Several values for one entry are separate records, joined by “and”; a condition that tells them apart may be missing. Equal values may be shown once. Inconclusive results and toxic doses are left out. Square brackets hold non-standard residues; d marks the D form. Peptide text beside a SMILES is read from it. ξ: configuration not given here. ξV = CC(C)C(N)C(=O)O
Test system: BDF1 mice, B16 melanoma ip, median survival T/C
Test: NCI In Vivo Anticancer Drug Screen. Data for tumor model B16 Melanoma (intraperitoneal) in B6D2F1 (BDF1) mice
Details: endpoint: median survival time, higher = longer survival
In short: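 The ratio T/C compares compound-treated mice with vehicle-treated controls, using survival or tumor size as the endpoint in a transplantable tumor model.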

[1] = dose: 100.0 mg/kg/injection, schedule: Q01DX009 (ip), vehicle: saline with Tween-80
[2] = dose: 200.0 mg/kg/injection, schedule: Q01DX009 (ip), vehicle: saline with Tween-80
[3] = dose: 400.0 mg/kg/injection, schedule: Q01DX009 (ip), vehicle: saline with Tween-80
[4] = dose: 12.5 mg/kg/injection, schedule: Q01DX009 (ip), vehicle: saline with Tween-80
[5] = dose: 25.0 mg/kg/injection, schedule: Q01DX009 (ip), vehicle: saline with Tween-80
[6] = dose: 50.0 mg/kg/injection, schedule: Q01DX009 (ip), vehicle: saline with Tween-80
[7] = dose: 100.0 mg/kg/injection, schedule: Q01DX009 (ip), vehicle: saline
[8] = dose: 100.0 mg/kg/injection, schedule: Q04DX003 (ip), vehicle: saline
[9] = dose: 200.0 mg/kg/injection, schedule: Q01DX009 (ip), vehicle: saline
[10] = dose: 400.0 mg/kg/injection, schedule: Q01DX009 (ip), vehicle: saline
[11] = dose: 12.5 mg/kg/injection, schedule: Q01DX009 (ip), vehicle: Klucel (hydroxypropylcellulose) (HPC)
[12] = dose: 25.0 mg/kg/injection, schedule: Q01DX009 (ip), vehicle: Klucel (hydroxypropylcellulose) (HPC)
[13] = dose: 50.0 mg/kg/injection, schedule: Q01DX009 (ip), vehicle: Klucel (hydroxypropylcellulose) (HPC)
[14] = dose: 100.0 mg/kg/injection, schedule: Q04DX003 (ip), vehicle: saline with Tween-80
[15] = dose: 200.0 mg/kg/injection, schedule: Q04DX003 (ip), vehicle: saline with Tween-80
[16] = dose: 100.0 mg/kg/injection, schedule: Q01DX009 (ip), vehicle: Klucel (hydroxypropylcellulose) (HPC)

`CCCCCCCCCCCC[S+](C)C` was tested. Which T/C (dose: 2.0 mg/kg/injection, schedule: Q01DX009 (ip), vehicle: saline sonified) did it give?
Its T/C is 89 % of control.

And the T/C (dose: 4.0 mg/kg/injection, schedule: Q01DX009 (ip), vehicle: saline sonified)?
The T/C was 102 % of control.

What about the T/C (dose: 5.0 mg/kg/injection, schedule: Q01DX009 (ip), vehicle: Klucel (hydroxypropylcellulose) (HPC)) of the same molecule?
Its T/C is 97 % of control.

And the T/C (dose: 8.0 mg/kg/injection, schedule: Q01DX009 (ip), vehicle: saline sonified)?
The T/C was 107 % of control.

What about the T/C (dose: 10.0 mg/kg/injection, schedule: Q01DX009 (ip), vehicle: Klucel (hydroxypropylcellulose) (HPC)) of the same molecule?
The T/C was 100 % of control.

And the T/C (dose: 16.0 mg/kg/injection, schedule: Q01DX009 (ip), vehicle: saline sonified)?
The T/C was 100 % of control.

What about the T/C (dose: 20.0 mg/kg/injection, schedule: Q01DX009 (ip), vehicle: Klucel (hydroxypropylcellulose) (HPC)) of the same molecule?
Its T/C is 88 % of control.

How did the T/C [1] turn out when `Cc1ccc(Cl)cc1NS(=O)(=O)c1ccccc1` was run?
The T/C was 90 % of control.

What about the T/C [2] of the same molecule?
Its T/C is 95 % of control.

And the T/C [3]?
Its T/C is 90 % of control.

For `CC1=Nc2ccc([N+](=O)[O-])cc2N=C(C)C1`, which T/C (dose: 37.5 mg/kg/injection, schedule: Q01DX009 (ip), vehicle: saline) is on record?
The T/C was 97 % of control.

What about the T/C (dose: 75.0 mg/kg/injection, schedule: Q01DX009 (ip), vehicle: saline) of the same molecule?
Its T/C is 101 % of control.

What about the T/C (dose: 150.0 mg/kg/injection, schedule: Q01DX009 (ip), vehicle: saline) of the same molecule?
Its T/C is 89 % of control.

How did the T/C [4] turn out when `CCCCCCCC/C=C\CCCCCCCC(=O)N(C)CC(=O)O` was run?
Its T/C is 118 % of control.

What about the T/C [5] of the same molecule?
The T/C was 105 % of control.

What about the T/C [6] of the same molecule?
Its T/C is 104 % of control.

Which results are given for `CC(C)C(NC(=O)CNC(=O)CN)C(=O)O` (stereo not drawn) (H-Gly-Gly-[ξV]-OH)?
T/C [7]: 95 % of control; T/C [8]: 100 % of control; T/C [9]: 97 % of control; T/C (dose: 200.0 mg/kg/injection, schedule: Q04DX003 (ip), vehicle: saline): 97 % of control; T/C [10]: 95 % of control; T/C (dose: 400.0 mg/kg/injection, schedule: Q04DX003 (ip), vehicle: saline): 95 % of control

How did the T/C (dose: 100.0 mg/kg/injection, schedule: Q04DX003 (ip), vehicle: Klucel (hydroxypropylcellulose) (HPC)) turn out when `CCOC(=O)C(Cc1ccccc1)NP(=O)(OCCCl)OCCCl` (stereo unspecified) was run?
The T/C was 104 % of control.

And the T/C (dose: 200.0 mg/kg/injection, schedule: Q04DX003 (ip), vehicle: Klucel (hydroxypropylcellulose) (HPC))?
The T/C was 86 % of control.

With `CC1(c2ccccc2)CCc2ccccc21` (stereo unspecified) as the molecule, how does the T/C [5] read?
The T/C was 103 % of control.

And the T/C [6]?
Its T/C is 89 % of control.

What about the T/C [1] of the same molecule?
The T/C was 90 % of control.

With `C(C#CCN1CCOCC1)#CCN1CCOCC1` as the molecule, how does the T/C [4] read?
The T/C was 102 % of control and 103 % of control.

What about the T/C [5] of the same molecule?
Its T/C is 97 % of control.

And the T/C [6]?
The T/C was 93 % of control and 96 % of control.

What about the T/C [1] of the same molecule?
Its T/C is 90 % of control and 97 % of control (2×).

What about the T/C [2] of the same molecule?
Its T/C is 90 % of control and 97 % of control (2×).

What about the T/C [3] of the same molecule?
Its T/C is 90 % of control and 97 % of control and 107 % of control.

What does the source list for `c1nnc(NCNc2nncs2)s1`?
T/C (dose: 6.25 mg/kg/injection, schedule: Q01DX009 (ip), vehicle: saline): 108 % of control; T/C (dose: 25.0 mg/kg/injection, schedule: Q01DX009 (ip), vehicle: saline): 122 % of control; T/C (dose: 50.0 mg/kg/injection, schedule: Q04DX003 (ip), vehicle: saline): 109 % of control; T/C [8]: 119 % of control

What does the source list for `CC1=CC(C)(C)Nc2ccc(CSc3ccccc3)cc21`?
T/C (dose: 12.5 mg/kg/injection, schedule: Q01DX009 (ip), vehicle: saline + Tween-80 + alcohol): 112 % of control; T/C (dose: 25.0 mg/kg/injection, schedule: Q01DX009 (ip), vehicle: saline + Tween-80 + alcohol): 117 % of control; T/C (dose: 50.0 mg/kg/injection, schedule: Q01DX009 (ip), vehicle: saline + Tween-80 + alcohol): 111 % of control; T/C (dose: 100.0 mg/kg/injection, schedule: Q01DX009 (ip), vehicle: saline + Tween-80 + alcohol): 96 % of control

What does the source list for `C1=CC2CC3(OCCO3)C2C1` (stereo unspecified)?
T/C [6]: 88 % of control; T/C [1]: 106 % of control; T/C [2]: 93 % of control

`NC(N)=NCCCOc1ccccc1` was tested. Which T/C (dose: 3.12 mg/kg/injection, schedule: Q01DX009 (ip), vehicle: Klucel (hydroxypropylcellulose) (HPC)) did it give?
Its T/C is 102 % of control.

And the T/C (dose: 6.25 mg/kg/injection, schedule: Q01DX009 (ip), vehicle: Klucel (hydroxypropylcellulose) (HPC))?
The T/C was 108 % of control.

What about the T/C [11] of the same molecule?
Its T/C is 113 % of control.

What about the T/C [12] of the same molecule?
Its T/C is 100 % of control.

And the T/C [13]?
Its T/C is 100 % of control.

With `O=S(=O)(O)c1cc(O)c2ccccc2c1` as the molecule, how does the T/C [7] read?
The T/C was 107 % of control.

And the T/C [9]?
The T/C was 100 % of control.

And the T/C [10]?
The T/C was 102 % of control.

With `CCOC(=O)C(Cc1ccccc1)P(=O)(OCC)OCC` (stereo unspecified) as the molecule, how does the T/C (dose: 50.0 mg/kg/injection, schedule: Q04DX003 (ip), vehicle: saline with Tween-80) read?
The T/C was 100 % of control.

And the T/C [14]?
Its T/C is 95 % of control.

What about the T/C [15] of the same molecule?
The T/C was 90 % of control.

How did the T/C [13] turn out when `CSCCC(NC(=O)OCC1c2ccccc2-c2ccccc21)C(=O)O` (stereo unspecified) was run?
Its T/C is 103 % of control.

And the T/C [16]?
The T/C was 98 % of control.

What about the T/C (dose: 200.0 mg/kg/injection, schedule: Q01DX009 (ip), vehicle: Klucel (hydroxypropylcellulose) (HPC)) of the same molecule?
Its T/C is 87 % of control.

What does the source list for `CC(=O)c1ccc2ccccc2c1O`?
T/C [4]: 107 % of control; T/C [5]: 93 % of control; T/C [6]: 106 % of control; T/C [14]: 100 % of control; T/C [15]: 110 % of control; T/C (dose: 400.0 mg/kg/injection, schedule: Q04DX003 (ip), vehicle: saline with Tween-80): 100 % of control

For `COc1ccccc1NC(=O)c1cc2ccccc2cc1O`, which T/C [7] is on record?
Its T/C is 121 % of control.

And the T/C [10]?
The T/C was 118 % of control.

Which results are given for `CCOC(=O)C1C2OC(=O)C(C(=O)C2CN(CCCl)CCCl)C1C1CC=C(CC2=CCC(C3C4C(=O)OC(C(CN(CCCl)CCCl)C4=O)C3C(=O)OCC)CC2)CC1` (stereo unspecified)?
T/C [11]: 107 % of control; T/C [4]: 113 % of control; T/C [12]: 118 % of control; T/C [5]: 119 % of control; T/C [6]: 150 % of control; T/C [16]: 153 % of control; T/C [1]: 174 % of control

With `C[C@]12CC[C@H]3[C@@H](CCC4=C[C@@H](OC5OCC(OC6OC(CO)C(O)C(O)C6O)C(O)C5O)CC[C@@]43C=O)[C@@]1(O)CCC2C1=CC(=O)OC1` (stereo partly specified) as the molecule, how does the T/C (dose: 1.25 mg/kg/injection, schedule: Q01DX009 (ip), vehicle: saline) read?
The T/C was 100 % of control.

What about the T/C (dose: 2.5 mg/kg/injection, schedule: Q01DX009 (ip), vehicle: saline) of the same molecule?
Its T/C is 105 % of control.

And the T/C (dose: 5.0 mg/kg/injection, schedule: Q01DX009 (ip), vehicle: saline)?
Its T/C is 89 % of control.
